We go through 2 compounds from patent publication US20080319001A1, “Cancer Treatment Using Specific 3,6,9-Substituted Acridines” (priority 2005, published 2008).

One assay relates to human telomerase. Particulars: Read et al. 2001; Harrison et al. 2003; Schultes et al. 2004; cited from earlier work.
The next assay relates to A549-derived xenografts. The assay is described as follows: A549 xenograft combination study. Type of assay: in vivo, mouse. To be noted: single agent (AS1410 1 mg/kg or cisplatin 6 mg/kg), after approximately 60 days. The protocol: AS1410 was reconstituted in 0.9% saline B.P. to the required final concentration (0.331 and 0.0993) mg/ml of AS1410 succinate salt for intravenous administration).
The xenografts were prepared from the lung carcinoma A549 (ATCC Number CCL-185). Cells were grown in accordance with standard operating procedures and established methodology for this cell line to provide 5×10^6 cells per mouse.
A549-derived xenografts were established in 50 female nu/nu MF1 mice respectively by subcutaneous injection into the right flank of each mouse (5×10^6 cells in 100 μl phosphate buffered saline).
Animals were checked regularly until visible tumours appeared. Tumours were then measured in accordance with the relevant SOP regularly and tumour volume calculated using the formula: […]
Once the tumours were established, the mice were allocated into groups of 9 mice using a randomization procedure based on stratified xenograft volume.
Day 0 is defined as the day on which the average tumour volume is between 0.04 to 0.1 cm^3. Relative tumour volume on Day 0 is defined as 1.
Each mouse was observed and tumours measured until the xenografts tripled (3V0) in volume compared with volume on the day of treatment (V0). The elapsed period is the volume tripling time (VTT).
AS1410 was given by slow bolus intravenous injection. For AS1410 a dose volume 5 μl/g bodyweight was used. Control mice were untreated. […]

Structures are written as SMILES.

In the case of `Nc1ccc(Nc2c3ccc(NC(=O)CCN4CCCC4)cc3nc3cc(NC(=O)CCN4CCCC4)ccc23)cc1` [BR-ACO-20], the “in vitro inhibitory activity against human telomerase” value in the assay with human telomerase is recorded as “potent in vitro inhibitory activity”.

In the case of `N.N.[Cl][Pt][Cl]` [cisplatin, cis-diaminedichloroplatinum(II)], the relative tumour volume entry in the assay with A549-derived xenografts is on record as “about 5”.
